Values quoted from earlier work as cited in patent US7029655B2, “Magnetic resonance imaging agents for in vivo labeling and detection of amyloid deposits” (California Institute of Technology, priority 2000, dated 2006).

Conditions: thermodynamic stability of the Gd(III) chelate

| stability constant (K) / formation constant, logK | Structure (SMILES) |
| --- | --- |
| 22.4 | O=C([O-])CN(CCN(CC(=O)[O-])CC(=O)[O-])CCN(CC(=O)[O-])CC(=O)[O-].[Gd+3] [Gd(DTPA)^2−] |
| 28.5 | O=C([O-])CN1CCN(CC(=O)[O-])CCN(CC(=O)[O-])CCN(CC(=O)[O-])CC1.[Gd+3] [Gd-DOTA] |
